Assay results taken from patent US10562887B2, “Triazolones and tetrazolones as inhibitors of ROCK” (BRISTOL-MYERS SQUIBB COMPANY, priority 2016, dated 2020).
Like-named read-outs stand apart in the source and are kept apart here.

Key:
ROCK2 = ROCK2 (Homo sapiens (Human), UniProt O75116); experiment: ROCK2 assay (peptide phosphorylation, LABCHIP 3000 Reader); assay type: biochemical; settings: 5 μM ATP, 1.5 μM peptide substrate
Summary of the method: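 Human ROCK2 reaction in 20 mM HEPES pH 7.5, 20 mM MgCl2, 0.015% Brij-35, 4 mM DTT, with 5 μM ATP and 1.5 μM FITC-labelled peptide, DMSO <2%. Stopped with EDTA; phosphorylated and unphosphorylated peptide separated by microfluidic mobility shift. IC50 from dose-response curve fit.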

[1] = tested on: spontaneously hypertensive rat, renal hypertensive rat and deoxycortisone acetate salt hypertensive rat models; settings: cited from earlier work
neointimal formation = settings: rats; cited from earlier work
[2] = tested on: congestive heart failure in Dahl salt-sensitive rats; settings: cited from earlier work
rat stroke model = settings: cited from earlier work
[3] = tested on: IL-1 beta-induced coronary stenosis; settings: long term treatment, porcine model; cited from earlier work

Sequence of ROCK2 (O75116 whole entry, species assumed): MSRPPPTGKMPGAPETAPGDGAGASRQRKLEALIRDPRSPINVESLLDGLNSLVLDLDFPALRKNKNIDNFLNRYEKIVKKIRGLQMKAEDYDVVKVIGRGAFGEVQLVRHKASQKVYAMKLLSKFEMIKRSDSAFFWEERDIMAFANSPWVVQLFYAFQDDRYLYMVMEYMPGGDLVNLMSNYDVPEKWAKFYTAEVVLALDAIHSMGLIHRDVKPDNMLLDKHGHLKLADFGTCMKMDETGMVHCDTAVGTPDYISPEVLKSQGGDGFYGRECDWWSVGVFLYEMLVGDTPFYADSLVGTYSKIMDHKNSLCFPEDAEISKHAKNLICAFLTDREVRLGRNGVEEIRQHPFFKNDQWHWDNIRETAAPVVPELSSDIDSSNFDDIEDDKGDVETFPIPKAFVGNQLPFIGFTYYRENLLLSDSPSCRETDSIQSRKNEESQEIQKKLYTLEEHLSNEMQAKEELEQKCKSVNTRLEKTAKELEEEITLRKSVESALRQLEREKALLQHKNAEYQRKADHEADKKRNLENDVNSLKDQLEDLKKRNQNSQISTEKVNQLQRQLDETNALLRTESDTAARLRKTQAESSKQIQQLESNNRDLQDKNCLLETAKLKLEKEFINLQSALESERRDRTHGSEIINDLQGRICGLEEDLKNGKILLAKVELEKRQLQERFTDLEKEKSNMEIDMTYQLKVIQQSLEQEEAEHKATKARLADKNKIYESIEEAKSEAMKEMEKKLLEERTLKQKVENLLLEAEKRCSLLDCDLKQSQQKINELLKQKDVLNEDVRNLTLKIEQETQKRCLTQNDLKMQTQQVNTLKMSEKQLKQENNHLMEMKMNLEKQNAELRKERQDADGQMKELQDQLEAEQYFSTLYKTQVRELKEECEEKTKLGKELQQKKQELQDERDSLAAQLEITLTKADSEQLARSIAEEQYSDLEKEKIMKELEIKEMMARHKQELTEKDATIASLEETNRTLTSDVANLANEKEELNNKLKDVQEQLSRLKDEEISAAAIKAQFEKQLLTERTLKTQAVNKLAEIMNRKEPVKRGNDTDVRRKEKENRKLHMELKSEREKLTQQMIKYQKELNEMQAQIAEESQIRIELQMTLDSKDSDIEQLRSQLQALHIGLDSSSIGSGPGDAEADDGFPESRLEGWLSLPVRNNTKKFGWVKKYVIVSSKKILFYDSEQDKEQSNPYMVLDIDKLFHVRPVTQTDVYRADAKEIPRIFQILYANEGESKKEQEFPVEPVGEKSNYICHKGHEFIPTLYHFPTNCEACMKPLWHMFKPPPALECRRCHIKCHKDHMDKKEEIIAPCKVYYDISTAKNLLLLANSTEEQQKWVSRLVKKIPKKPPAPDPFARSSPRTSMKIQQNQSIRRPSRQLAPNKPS

| IC50 (ROCK2) | Structure (SMILES) | other results |
| --- | --- | --- |
| 50 to 250 nM | O=c1n(Cc2cccc(F)c2)nnn1-c1ccc(-c2cn[nH]c2)cc1 [Example 173, 1-(4-(1H-pyrazol-4-yl)phenyl)-4-(3-fluorobenzyl)-1H-tetrazol-5(4H)-one] | – |
| 50 to 250 nM | O=c1n(Cc2cc(F)ccc2F)nnn1-c1ccc(-c2cn[nH]c2)cc1 [Example 174, 1-(4-(1H-pyrazol-4-yl)phenyl)-4-(2,5-difluorobenzyl)-1H-tetrazol-5(4H)-one] | – |
| 5 to 50 nM | COc1cc(F)cc(Cn2nnn(-c3ccc(-c4cn[nH]c4)cc3)c2=O)c1 [Example 175, 1-(4-(1H-pyrazol-4-yl)phenyl)-4-(3-fluoro-5-methoxybenzyl)-1H-tetrazol-5(4H)-one] | – |
| 5 to 50 nM | CC(c1ccccc1)n1nnn(-c2ccc(-c3cn[nH]c3)cc2)c1=O (stereo not shown) [Example 176, 1-(4-(1H-pyrazol-4-yl)phenyl)-4-(1-phenylethyl)-1H-tetrazol-5(4H)-one] | – |
| 50 to 250 nM | O=c1n(Cc2ccccc2Cl)nnn1-c1ccc(-c2cn[nH]c2)cc1 [Example 177, 1-(4-(1H-pyrazol-4-yl)phenyl)-4-(2-chlorobenzyl)-1H-tetrazol-5(4H)-one] | – |
| 5 to 50 nM | O=c1n(Cc2ccccc2)nnn1-c1ccc(-c2cn[nH]c2)cc1 [Example 178, 1-(4-(1H-pyrazol-4-yl)phenyl)-4-benzyl-1H-tetrazol-5(4H)-one] | – |
| 50 to 250 nM | COc1cc(-n2nnn(Cc3ccccc3)c2=O)ccc1-c1cn[nH]c1 [Example 179, 1-benzyl-4-(3-methoxy-4-(1H-pyrazol-4-yl)phenyl)-1H-tetrazol-5(4H)-one] | – |
| 5 to 50 nM | COc1cc(-n2nnn(Cc3cccc(F)c3)c2=O)ccc1-c1cn[nH]c1 [Example 180, 1-(3-fluorobenzyl)-4-(3-methoxy-4-(1H-pyrazol-4-yl)phenyl)-1H-tetrazol-5(4H)-one] | – |
| 50 to 250 nM | COc1cc(-n2nnn(Cc3cc(F)ccc3F)c2=O)ccc1-c1cn[nH]c1 [Example 181, 1-(2,5-difluorobenzyl)-4-(3-methoxy-4-(1H-pyrazol-4-yl)phenyl)-1H-tetrazol-5(4H)-one] | – |
| 5 to 50 nM | COc1cc(F)cc(Cn2nnn(-c3ccc(-c4cn[nH]c4)c(OC)c3)c2=O)c1 [Example 182, 1-(3-fluoro-5-methoxybenzyl)-4-(3-methoxy-4-(1H-pyrazol-4-yl)phenyl)-1H-tetrazol-5(4H)-one] | – |
| 50 to 250 nM | COc1cc(-n2nnn(Cc3ccccc3F)c2=O)ccc1-c1cn[nH]c1 [Example 183, 1-(2-fluorobenzyl)-4-(3-methoxy-4-(1H-pyrazol-4-yl)phenyl)-1H-tetrazol-5(4H)-one] | – |
| 50 to 250 nM | COc1cc(-n2nnn(Cc3c(F)cccc3F)c2=O)ccc1-c1cn[nH]c1 [Example 184, 1-(2,6-difluorobenzyl)-4-(3-methoxy-4-(1H-pyrazol-4-yl)phenyl)-1H-tetrazol-5(4H)-one] | – |
| 250 to 2000 nM | COc1cc(-n2nnn(Cc3cccc(C#N)c3)c2=O)ccc1-c1cn[nH]c1 [Example 185, 3-((4-(3-methoxy-4-(1H-pyrazol-4-yl)phenyl)-5-oxo-4,5-dihydro-1H-tetrazol-1-yl)methyl)benzonitrile] | – |
| 250 to 2000 nM | COc1cc(-n2nnn(Cc3ccc(F)cc3)c2=O)ccc1-c1cn[nH]c1 [Example 186, 1-(4-fluorobenzyl)-4-(3-methoxy-4-(1H-pyrazol-4-yl)phenyl)-1H-tetrazol-5(4H)-one] | – |
| 5 to 50 nM | COc1cccc(Cn2nnn(-c3ccc(-c4cn[nH]c4)c(OC)c3)c2=O)c1 [Example 187, 1-(3-methoxy-4-(1H-pyrazol-4-yl)phenyl)-4-(3-methoxybenzyl)-1H-tetrazol-5(4H)-one] | – |
| – | C[C@@H](N)[C@H]1CC[C@H](C(=O)Nc2ccncc2)CC1 [Example Y-27632, Y-27632] | blood pressure ([1]; control rats): only a minor effect; blood pressure ([1]; three rat models of hypertension): significantly decrease blood pressure; neointimal formation (neointimal formation): inhibited neointimal formation; ventricular hypertrophy, fibrosis and function [2]: improve |
| – | O=S(=O)(c1cccc2cnccc12)N1CCCNCC1 [fasudil] | infarct size and neurologic deficit (rat stroke model): reduce both the infarct size and neurologic deficit; coronary constrictive remodeling [3]: promote a regression; coronary stenosis [3]: progressively reduce coronary stenosis |
